Test results taken from PubChem BioAssay (NCI).
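Assay format: 96-well plates, 48-hour exposure. The concentration for full growth arrest is given as TGI.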

What was measured:
Assay in all cases: NCI tumour cell line growth inhibition, 48 h
ACHN renal = test system: ACHN renal
RPMI-8226 leukemia = test system: RPMI-8226 leukemia
HCC-2998 colon = test system: HCC-2998 colon
SF-295 CNS = test system: SF-295 CNS
HOP-92 NSCLC = test system: HOP-92 NSCLC
MOLT-4 leukemia = test system: MOLT-4 leukemia
UACC-62 melanoma = test system: UACC-62 melanoma
HOP-62 NSCLC = test system: HOP-62 NSCLC
MDA-MB-435 = test system: MDA-MB-435
EKVX NSCLC = test system: EKVX NSCLC
SK-MEL-5 melanoma = test system: SK-MEL-5 melanoma
HL-60(TB) leukemia = test system: HL-60(TB) leukemia
COLO 205 colon = test system: COLO 205 colon
A549 NSCLC = test system: A549 NSCLC
IGROV1 ovarian = test system: IGROV1 ovarian
SR leukemia = test system: SR leukemia
UO-31 renal = test system: UO-31 renal
TK-10 renal = test system: TK-10 renal
HCT-15 colon = test system: HCT-15 colon
K-562 leukemia = test system: K-562 leukemia
OVCAR-8 ovarian = test system: OVCAR-8 ovarian
SW-620 colon = test system: SW-620 colon
SK-MEL-2 melanoma = test system: SK-MEL-2 melanoma
SN12C renal = test system: SN12C renal
DU-145 prostate = test system: DU-145 prostate
NCI-H522 lung = test system: NCI-H522 lung
CAKI-1 renal = test system: CAKI-1 renal
HS 578T breast = test system: HS 578T breast
CCRF-CEM leukemia = test system: CCRF-CEM leukemia
T-47D breast = test system: T-47D breast
MALME-3M melanoma = test system: MALME-3M melanoma
SNB-75 CNS = test system: SNB-75 CNS
U251 CNS = test system: U251 CNS
A498 renal = test system: A498 renal
MCF7 breast = test system: MCF7 breast
786-0 renal = test system: 786-0 renal
SNB-19 CNS = test system: SNB-19 CNS
SK-OV-3 ovarian = test system: SK-OV-3 ovarian
SK-MEL-28 melanoma = test system: SK-MEL-28 melanoma
NCI-H226 lung = test system: NCI-H226 lung
OVCAR-3 ovarian = test system: OVCAR-3 ovarian
UACC-257 melanoma = test system: UACC-257 melanoma
LOX IMVI melanoma = test system: LOX IMVI melanoma
OVCAR-5 ovarian = test system: OVCAR-5 ovarian
M14 melanoma = test system: M14 melanoma
MDA-MB-231 breast = test system: MDA-MB-231 breast
NCI-H460 lung = test system: NCI-H460 lung
SF-539 CNS = test system: SF-539 CNS
SF-268 CNS = test system: SF-268 CNS
KM12 colon = test system: KM12 colon
HCT-116 colon = test system: HCT-116 colon
NCI/ADR-RES ovarian = test system: NCI/ADR-RES ovarian
PC-3 prostate = test system: PC-3 prostate
MDA-N = test system: MDA-N
OVCAR-4 ovarian = test system: OVCAR-4 ovarian
HT29 colon = test system: HT29 colon
RXF 393 renal = test system: RXF 393 renal
NCI-H23 lung = test system: NCI-H23 lung
BT-549 breast = test system: BT-549 breast

Measured: TGI

CCOC(=O)OC1(c2ccccc2)CCN(C)CC1
> 100 µM: ACHN renal | RPMI-8226 leukemia | HCC-2998 colon | SF-295 CNS | HOP-92 NSCLC | MOLT-4 leukemia | UACC-62 melanoma | HOP-62 NSCLC | MDA-MB-435 | EKVX NSCLC | SK-MEL-5 melanoma | HL-60(TB) leukemia | COLO 205 colon | A549 NSCLC | IGROV1 ovarian | SR leukemia | UO-31 renal | TK-10 renal | HCT-15 colon | K-562 leukemia | OVCAR-8 ovarian | SW-620 colon | SK-MEL-2 melanoma | SN12C renal | DU-145 prostate | NCI-H522 lung | CAKI-1 renal | HS 578T breast | CCRF-CEM leukemia | T-47D breast | MALME-3M melanoma | SNB-75 CNS | U251 CNS | A498 renal | MCF7 breast | 786-0 renal | SNB-19 CNS | SK-OV-3 ovarian | SK-MEL-28 melanoma | NCI-H226 lung | OVCAR-3 ovarian | UACC-257 melanoma | LOX IMVI melanoma | OVCAR-5 ovarian | M14 melanoma | MDA-MB-231 breast | NCI-H460 lung | SF-539 CNS | SF-268 CNS | KM12 colon | HCT-116 colon | NCI/ADR-RES ovarian | PC-3 prostate | MDA-N | OVCAR-4 ovarian | HT29 colon | RXF 393 renal | NCI-H23 lung

COc1ccc(-c2oc3cc(OC)ccc3c(=O)c2O)cc1
> 100 µM: SF-295 CNS | EKVX NSCLC | SK-MEL-5 melanoma | COLO 205 colon | TK-10 renal | HCT-15 colon | U251 CNS | A498 renal | 786-0 renal | SNB-19 CNS | UACC-257 melanoma | LOX IMVI melanoma | MDA-MB-231 breast | NCI-H460 lung | HCT-116 colon | PC-3 prostate | MDA-N | HT29 colon
42.6 µM: RXF 393 renal
4.23 µM: BT-549 breast
8.33 µM: CAKI-1 renal
5.53 µM: HS 578T breast
> 31.6 µM: RPMI-8226 leukemia | HOP-92 NSCLC | MDA-MB-435 | IGROV1 ovarian | MALME-3M melanoma | MCF7 breast | SK-MEL-28 melanoma | M14 melanoma | OVCAR-4 ovarian

CC1=[N+]([O-])C2(CCCC2)N(O)C1(C)C
> 100 µM: ACHN renal | RPMI-8226 leukemia | HCC-2998 colon | SF-295 CNS | HOP-92 NSCLC | UACC-62 melanoma | HOP-62 NSCLC | MDA-MB-435 | EKVX NSCLC | SK-MEL-5 melanoma | HL-60(TB) leukemia | COLO 205 colon | A549 NSCLC | IGROV1 ovarian | UO-31 renal | TK-10 renal | HCT-15 colon | K-562 leukemia | OVCAR-8 ovarian | SW-620 colon | SK-MEL-2 melanoma | SN12C renal | DU-145 prostate | CAKI-1 renal | HS 578T breast | T-47D breast | MALME-3M melanoma | U251 CNS | MCF7 breast | 786-0 renal | SNB-19 CNS | SK-OV-3 ovarian | SK-MEL-28 melanoma | NCI-H226 lung | OVCAR-3 ovarian | UACC-257 melanoma | LOX IMVI melanoma | OVCAR-5 ovarian | M14 melanoma | MDA-MB-231 breast | NCI-H460 lung | SF-539 CNS | SF-268 CNS | KM12 colon | HCT-116 colon | NCI/ADR-RES ovarian | PC-3 prostate | MDA-N | OVCAR-4 ovarian | HT29 colon | RXF 393 renal | NCI-H23 lung

CCOC(=O)c1c(-c2ccc(OC)cc2)c(C#N)c(=S)n(C2OC(CO)C(O)C(O)C2O)c1C (centres undefined)
> 100 µM: HCC-2998 colon | SF-295 CNS | HOP-92 NSCLC | MOLT-4 leukemia | HOP-62 NSCLC | MDA-MB-435 | EKVX NSCLC | SK-MEL-5 melanoma | HL-60(TB) leukemia | COLO 205 colon | A549 NSCLC | IGROV1 ovarian | SR leukemia | UO-31 renal | TK-10 renal | HCT-15 colon | K-562 leukemia | OVCAR-8 ovarian | SW-620 colon | SK-MEL-2 melanoma | SN12C renal | DU-145 prostate | NCI-H522 lung | CAKI-1 renal | CCRF-CEM leukemia | T-47D breast | MALME-3M melanoma | SNB-75 CNS | U251 CNS | A498 renal | MCF7 breast | 786-0 renal | SNB-19 CNS | SK-OV-3 ovarian | SK-MEL-28 melanoma | NCI-H226 lung | OVCAR-3 ovarian | UACC-257 melanoma | LOX IMVI melanoma | OVCAR-5 ovarian | M14 melanoma | MDA-MB-231 breast | SF-539 CNS | SF-268 CNS | KM12 colon | HCT-116 colon | NCI/ADR-RES ovarian | PC-3 prostate | MDA-N | OVCAR-4 ovarian | HT29 colon | RXF 393 renal | NCI-H23 lung
